Results on one substance are retold here after patent publication US20040063790A1, “Methods for inhibition of angiogenesis” (The Scripps Research Institute, priority 1996, published 2004).

The subject of experiment [1] is αvβ3-expressing CS-1 cells. Nature of the experiment: Inhibition of cell attachment assay. It counts as cell-based, hamster. The protocol:
As one means to determine integrin receptor specificity of the antagonists of this invention, inhibition of cell attachment assays were performed as described below.
Briefly, CS-1 hamster melanoma cells lacking expression of αvβ3 and αvβ5 were first transfected with an plasmid for expressing the […] as previously described by Filardo et al., J. Cell Biol., 130:441-450 (1995). Specificity of potential αvβ3 antagonists was determined by the ability to block the binding of αvβ3-expressing CS-1 cells to VN or laminin coated plates. As an example of a typical assay, the wells were first coated with 10 μg/ml substrate overnight. After rinsing and blocking with 1% heat-denatured BSA in PBS at room temperature for 30 minutes, peptide 85189 (SEQ ID NO: 15) over a concentration range of 0.0001 μM to 100 μM, was separately mixed with CS-1 cells for applying to wells with a cell number of 50, 000 cells/well. After a 10-15 minute incubation at 37° C., the solution containing the cells and peptides was discarded. The number of attached cells was then determined following staining with 1% crystal violet. Cell associated crystal violet was eluted by the addition of 100 microliters (μl) of 10% acetic acid. Cell adhesion was quantified by measuring the optical density of the eluted crystal violet at a wave length of 600 nm.

The test system of experiment [2] is vascular cell apoptosis. The experiment is described as follows: Apoptosis in bFGF-treated CAM, Apop Tag staining. It counts as in vivo, chick. Conditions: 300 μg/ml; treated two days prior; versus PBS or control peptide 69601. The procedure: CAM assays with growth factor-induced angiogenesis, as described in Example 4A, were also performed with the synthetic peptides of this invention to determine the effect of cyclic peptides on apoptosis. The peptides cyclo-RGDfV (66203) and cyclo-RADfV (69601) were prepared as described in Example 1. The peptide solutions or PBS were injected into the CAM preparation at a concentration of 300 μg/ml. At 24 and 48 hours, the filter paper and surrounding CAM tissue was dissected and stained with the Apop Tag to detect apoptosis.

cyclo (RGDfV) [Peptide 66203]: in experiment [1] (laminin), the “inhibition of β3-expressing CS-1 cell adhesion to laminin” value is “but not laminin”. The “inhibition of β3-expressing CS-1 cell adhesion to vitronectin” value in experiment [1] (vitronectin) is given as “inhibited”. For the same substance, in experiment [2], the “increase in Apop Tag staining” value is given as 3 to 4 fold.
